Results taken from patent US10709653B2, “Cosmetic compositions comprising spiculisporic acid and at least one sulfate and/or sulfonate surfactant” (L'OREAL, priority 2013, dated 2020).
Where two headings read alike, the source gives them in different places.

How the values were obtained:
[1] = Aspect and pH on storage of S-acid solutions salified with KOH, Arg or TEA with sulfate or sulfonate surfactant (Example 3); assay type: physicochemical; parameters: key to Aspect (macroscopic observation) 15 days 4° C. / Aspect (macroscopic observation) 15 days RT: *: showed a precipitate; settings: S-acid 4.00% MA
Protocol: The compositions of Table 3 above were prepared according to the following operating procedure:
Phase A was heated to 40° C. After solubilization of the S-acid, the phase B was added to the Phase A. Next, the phase C was added after phase B.
A portion of the solution was stored at room temperature and the other one at 4° C.

[2] = cited from earlier work
[3] = Aspect and pH on storage of spiculisporic acid solutions pre-solubilized with KOH, alone or with surfactants (Example 2); assay type: physicochemical
Text: Solutions containing the S-acid at 4% or 8% (neutralized with an amount of KOH calculated so as to obtain the di-potassium salt of S-acid, i.e. R1=2) and surfactants, were made.

[4] = sulfate surfactant 4.00% MA, base Arg, R 1.10
[5] = sulfate surfactant 4.00% MA, base Arg, R 1.25
[6] = sulfate surfactant 4.00% MA, base Arg, R 1.75
[7] = sulfate surfactant 4.00% MA, base Arg, R 2.00
[8] = sulfate surfactant 4.00% MA, base KOH, R 2.00
[9] = sulfate surfactant 4.00% MA, base TEA, R 1.10
[10] = sulfate surfactant 4.00% MA, base TEA, R 1.25
[11] = sulfate surfactant 4.00% MA, base TEA, R 1.75
[12] = sulfate surfactant 4.00% MA, base TEA, R 2.00
[13] = sulfonate surfactant 4.00% MA, base Arg, R 1.10
[14] = sulfonate surfactant 4.00% MA, base Arg, R 1.25
[15] = sulfonate surfactant 4.00% MA, base Arg, R 1.75
[16] = sulfonate surfactant 4.00% MA, base Arg, R 2.00
[17] = sulfonate surfactant 4.00% MA, base KOH, R 2.00
[18] = sulfonate surfactant 4.00% MA, base TEA, R 1.10
[19] = sulfonate surfactant 4.00% MA, base TEA, R 1.25
[20] = sulfonate surfactant 4.00% MA, base TEA, R 1.75
[21] = sulfonate surfactant 4.00% MA, base TEA, R 2.00
[22] = S-acid 4% MA, KOH (R=2), named surfactant 4% if any

SMILES: CCCCCCCCCCC(C(=O)O)C1(C(=O)O)CCC(=O)O1 (stereo not drawn) [S-acid, 4,5-dicarboxy-4-pentadecanolide]
- pH 15 days 4° C. [1, 4]: 5.19
- pH 15 days RT [1, 4]: 5.11
- pH 15 days 4° C. [1, 5]: 5.33
- pH 15 days RT [1, 5]: 5.34
- pH 15 days 4° C. [1, 6]: 5.93
- pH 15 days RT [1, 6]: 5.95
- pH 15 days 4° C. [1, 7]: 6.25
- pH 15 days RT [1, 7]: 6.21
- Aspect (macroscopic observation) 15 days 4° C. [1, 8]: *
- Aspect (macroscopic observation) 15 days RT [1, 8]: *
- pH 15 days 4° C. [1, 8]: 6.24
- pH 15 days RT [1, 8]: 6.33
- pH 15 days 4° C. [1, 9]: 5.26
- pH 15 days RT [1, 9]: 5.19
- pH 15 days 4° C. [1, 10]: 5.38
- pH 15 days RT [1, 10]: 5.39
- pH 15 days 4° C. [1, 11]: 6.02
- pH 15 days RT [1, 11]: 5.98
- pH 15 days 4° C. [1, 12]: 6.32
- pH 15 days RT [1, 12]: 6.32
- pH 15 days 4° C. [1, 13]: 5.07
- pH 15 days RT [1, 13]: 5.00
- pH 15 days 4° C. [1, 14]: 5.28
- pH 15 days RT [1, 14]: 5.27
- pH 15 days 4° C. [1, 15]: 5.89
- pH 15 days RT [1, 15]: 5.93
- pH 15 days 4° C. [1, 16]: 6.19
- pH 15 days RT [1, 16]: 6.18
- Aspect (macroscopic observation) 15 days 4° C. [1, 17]: *
- pH 15 days 4° C. [1, 17]: 6.34
- pH 15 days RT [1, 17]: 6.43
- pH 15 days 4° C. [1, 18]: 5.22
- pH 15 days RT [1, 18]: 5.17
- pH 15 days 4° C. [1, 19]: 5.37
- pH 15 days RT [1, 19]: 5.33
- pH 15 days 4° C. [1, 20]: 5.96
- pH 15 days RT [1, 20]: 5.97
- pH 15 days 4° C. [1, 21]: 6.34
- pH 15 days RT [1, 21]: 6.33
- Solubility in water ([2]; high temperature): partly soluble
- Solubility in ethanol ([2]; room temperature): soluble
- Solubility in fats ([2]; room temperature): insoluble
- Solubility in water ([2]; room temperature): insoluble
- pH t0 RT ([3]; S-acid 4% MA, KOH (R=2), named surfactant 4% active material if any): 5.97
- pH 20 days after storage T = 4° C. [3, 22]: 6.01
- pH 20 days after storage RT [3, 22]: 6.02
- Aspect after 20 days of storage at 4° C. ([3]; S-acid 4%, KOH (R=2), surfactant 4% if any): precipitation
- pH 20 days after storage T = 4° C. ([3]; S-acid 8% MA, KOH (R=2)): 6.47
- pH 20 days after storage RT ([3]; S-acid 8% MA, KOH (R=2)): 6.47
- pH t0 RT ([3]; S-acid 8% MA, neutralized with KOH (R=2)): 6.43
- Aspect after 20 days of storage at 4° C. ([3]; S-acid 8%, KOH (R=2)): precipitation
